As usually defined, the melting point is the temperature, or range, at which the solid turns liquid.

Here are results for three molecules from US7141583B2, “Oxazolidinone derivatives with antibiotic activity” (AstraZeneca AB, priority 2000, dated 2006).

Converted amounts (≈) assume the structure as drawn.

For data set [1], the system named is Moraxella catarrhalis ARC445. Kind of data set: MIC, Moraxella catarrhalis ARC445 (Mueller-Hinton broth). Type of data set: cell-based. Particulars: Mueller-Hinton broth with hemin and NAD, 24 hours, 37° C. On the procedure: (§1) The following results were obtained on a standard in-vitro test system. The activity is described in terms of the minimum inhibitory concentration (MIC) determined by the agar-dilution technique with an inoculum size of 10^4 CFU/spot. Typically, compounds are active in the range 0.01 to 256 μg/ml. Streptococci and enterococci were tested on agar supplemented with 5% defibrinated horse blood, an inoculum of 10^4 CFU/spot and an incubation temperature of 37° C. in an atmosphere of 5% carbon dioxide for 48 hours—blood is required for the growth of some of the test organisms. Fastidious Gram negative organisms were tested in Mueller-Hinton broth, supplemented with hemin and NAD, grown aerobically for 24 hours at 37° C., and with an innoculum of 5×10^4 CFU/well.

Data set [2] has as its system Streptococcus pyogenes C203. Kind of data set: MIC by agar-dilution, Streptococcus pyogenes C203. It is filed as cell-based. The following applies: agar with 5% defibrinated horse blood, 5% carbon dioxide, 48 hours. On the procedure:
as §1

The subject of the next data set is Bacillus subtilis. Nature of the data set: MIC by agar-dilution, Bacillus subtilis. Type of data set: cell-based. The protocol:
(§2) The following results were obtained on a standard in-vitro test system. The activity is described in terms of the minimum inhibitory concentration (MIC) determined by the agar-dilution technique with an inoculum size of 10^4 CFU/spot. Typically, compounds are active in the range 0.01 to 256 μg/ml.

Data set [3] deals with Staphylococcus aureus Novb. Res (Novobiocin resistant). Nature of the data set: MIC by agar-dilution, Staphylococcus aureus Novb. Res. Type of data set: cell-based. The following applies: 37° C., 24 hours. On the procedure:
as §2
(§3) Staphylococci were tested on agar, using an inoculum of 10^4 CFU/spot and an incubation temperature of 37° C. for 24 hours—standard test conditions for the expression of methicillin resistance.

Data set [4] deals with Staphylococcus aureus Oxford. Nature of the data set: MIC by agar-dilution, Staphylococcus aureus Oxford. It is filed as cell-based. The following applies: 37° C., 24 hours. The protocol:
as §2, §3

Data set [5] has as its system Staphylococcus aureus MRQR (methicillin and quinolone resistant). Kind of data set: MIC by agar-dilution, Staphylococcus aureus MRQR. Particulars: 37° C., 24 hours. It is filed as cell-based. On the procedure: as §2, §3
The subject of data set [6] is Coagulase Negative Staphylococci MS (methicillin sensitive). Kind of data set: MIC by agar-dilution, Coagulase Negative Staphylococci MS. It is filed as cell-based. The following applies: 37° C., 24 hours. The protocol: as §2, §3
Data set [7] deals with Haemophilus influenzae ARC446. Kind of data set: MIC, Haemophilus influenzae ARC446 (Mueller-Hinton broth). Type of data set: cell-based. Particulars: Mueller-Hinton broth with hemin and NAD, 24 hours, 37° C. On the procedure:
as §1

Data set [8] relates to Coagulase Negative Staphylococci MR (methicillin resistant). Nature of the data set: MIC by agar-dilution, Coagulase Negative Staphylococci MR. Type of data set: cell-based. Particulars: 37° C., 24 hours. On the procedure:
as §2, §3

In the next data set the test system is Enterococcus faecalis. Nature of the data set: MIC by agar-dilution, Enterococcus faecalis. Type of data set: cell-based. The following applies: agar with 5% defibrinated horse blood, 5% carbon dioxide, 48 hours. The protocol:
as §1

As for `CSc1ccc(N2C[C@H](Cn3cccn3)OC2=O)cc1` [Example 43, (5R)-3-(4-Methylthiophenyl)-5-(pyrazol-1-ylmethyl)oxazolidin-2-one], the melting point lay within 72 to 73 °C.

With `CC(C)(C)c1ccc(N2C[C@H](Cn3ccnn3)OC2=O)cc1` [Example 41, (5R)-3-(4-t-Butylphenyl)-5-(1,2,3-triazol-1-ylmethyl)oxazolidin-2-one], the melting point lay within 140 to 142 °C.

Consider `O=C1O[C@@H](Cn2ccnn2)CN1c1cc(F)c(C2=CCS(=O)(=O)CC2)c(F)c1` [Example 44a, (5R)-3-(3,5-Difluoro-4-(3,6-dihydro-1,1-dioxo-2H-thiopyran-4-yl)phenyl)-5-(1,2,3-triazol-1-ylmethyl)oxazolidin-2-one], for which the MIC is 2 µg/mL (≈ 4.87 µM) in data set [1]; 0.25 µg/mL (≈ 0.609 µM) in data set [2]; 0.25 µg/mL (≈ 0.609 µM) in the data set with Bacillus subtilis; 0.25 µg/mL (≈ 0.609 µM) in data set [3]; 0.125 µg/mL (≈ 0.305 µM) in data set [4]; 0.25 µg/mL (≈ 0.609 µM) in [5]. Also, the MIC in data set [6] was 0.06 µg/mL (≈ 0.146 µM); in [7] it was 2 µg/mL (≈ 4.87 µM); in data set [8] it was 0.13 µg/mL (≈ 0.317 µM); against Enterococcus faecalis, 0.25 µg/mL (≈ 0.609 µM).
